{"source": "patent US12582633B2", "about": "(priority 2020, dated 2026)", "key": {"[1]": {"tested_on": "Vero E6 cells"}, "[2]": {"tested_on": "SARS-CoV-2", "assay": "microbe, parasite or virus in culture", "format": "cell-based"}}, "note": "Several values for one entry are separate records, joined by “and”; a condition that tells them apart may be missing. Equal values may be shown once."}
{"molecule": "O=C1CN(/N=C/c2ccc(-c3ccc([N+](=O)[O-])cc3)o2)C(O)=N1", "note": "[dantrolene]", "values": [{"measurement": "cell viability of uninfected Vero E6 cells", "setting": "[1]", "value": "good cell viability"}, {"measurement": "Day 2 Read (CPE)", "setting": "[2]", "value": "3/3 wells had No CPE and 3/3 wells had > 90% CPE and 3/3 wells had sparse"}, {"measurement": "Day 4 Read (CPE)", "setting": "[2]", "value": "3/3 wells had No CPE and 2/3 wells had > 90% CPE and 1/3 wells had > 90% CPE and 3/3 wells had > 90% CPE and 3/3 wells had sparse"}, {"measurement": "Day 6 Read (CPE)", "setting": "[2]", "value": "3/3 wells had No CPE and 2/3 wells had > 90% CPE and 1/3 wells had > 90% CPE and 3/3 wells had > 90% CPE and 3/3 wells had sparse"}, {"measurement": "MIC", "setting": "[2]; Severe acute respiratory syndrome coronavirus 2, read-out: minimum inhibitory concentration", "value": 20, "unit": "µM"}]}
